One assay addresses T1, GlyT2 Y430F mutant (Homo sapiens, UniProt Q9Y345, Y430F).
T1 sequence (Q9Y345 1-797 Y430F): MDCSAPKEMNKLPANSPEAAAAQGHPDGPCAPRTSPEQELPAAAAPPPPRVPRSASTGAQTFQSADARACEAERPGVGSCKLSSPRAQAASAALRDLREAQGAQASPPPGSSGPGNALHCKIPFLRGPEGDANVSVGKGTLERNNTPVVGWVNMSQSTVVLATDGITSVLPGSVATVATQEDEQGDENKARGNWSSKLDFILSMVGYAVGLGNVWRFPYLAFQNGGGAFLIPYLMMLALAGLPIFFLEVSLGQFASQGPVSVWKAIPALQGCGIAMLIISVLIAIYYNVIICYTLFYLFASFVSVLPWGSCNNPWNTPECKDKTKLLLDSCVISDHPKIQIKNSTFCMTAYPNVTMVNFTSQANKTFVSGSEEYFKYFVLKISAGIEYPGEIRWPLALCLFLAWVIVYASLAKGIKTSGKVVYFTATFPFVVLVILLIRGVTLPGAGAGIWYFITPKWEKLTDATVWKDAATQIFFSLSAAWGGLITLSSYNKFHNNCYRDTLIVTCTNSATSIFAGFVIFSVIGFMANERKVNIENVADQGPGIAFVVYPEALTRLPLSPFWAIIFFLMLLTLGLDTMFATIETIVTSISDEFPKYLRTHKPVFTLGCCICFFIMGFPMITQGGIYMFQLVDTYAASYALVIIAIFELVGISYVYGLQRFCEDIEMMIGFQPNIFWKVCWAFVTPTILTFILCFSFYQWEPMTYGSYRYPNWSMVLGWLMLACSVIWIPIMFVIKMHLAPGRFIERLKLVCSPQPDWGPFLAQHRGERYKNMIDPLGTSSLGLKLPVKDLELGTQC
To be noted: read-out: Glycine EC50; Y430F (TM5). The text has this: (§1) GlyT2a (referred to herein as GlyT2) was subcloned into the plasmid oocyte transcription vector (pOTV) for expression in Xenopus laevis oocytes. Oligonucleotide primers incorporating desired mutations were synthesized by Sigma-Aldrich and used to generate point mutations in the GlyT2 cDNA/pOTV construct using the Q5 site-directed mutagenesis kit (New England Biolabs [Genesearch]). Amplified PCR products were transformed into chemically competent E. coli cells and purified using the GeneJET Plasmid Miniprep Kit (Thermo Fisher Scientific). Purified plasmid DNA was sequence-verified by the Australian Genome Research Facility. pOTV constructs were linearized with the restriction enzyme SpeI (New England Biolabs [Genesearch]), and RNA was transcribed by T7 RNA polymerase using the mMESSAGE mMACHINE T7 kit (Thermo Fisher Scientific).
(§2) The transport activity of GlyT2 is an electrogenic process as it couples the transport of glycine to the co-transport of 3 Na^+ and 1 Cl^− and thus can be measured using two-electrode voltage-clamp electrophysiology. Oocytes expressing GlyTs were voltage-clamped at −60 mV, and glycine-induced whole-cell currents were measured using a GeneClamp 500 amplifier (Axon Instruments), and a PowerLab 2/26 chart recorder (ADInstruments) and LabChart Software (ADInstruments).
(§3) Functionality of WT and mutant GlyT2 transporters was assessed by applying increasing concentrations of glycine (1–3,000 µM) in ND96 until a stable current was achieved. Glycine concentrations were applied individually and completely removed from the system via washing with recording buffer before proceeding to the next concentration. EC50 values for each transporter were determined by fitting concentration–response data to the modified Michaelis–Menten equation: I=([Gly].Imax)/(EC50+[Gly]), where I is current in nA, [Gly] is the concentration of glycine, Imax is the current generated by a maximal concentration of glycine, and EC50 is the concentration of glycine that generates a half-maximal current.

Another assay has as its target T2, GlyT2 Y430L mutant (Homo sapiens, UniProt Q9Y345, Y430L).
T2 sequence (Q9Y345 1-797 Y430L): T1 sequence (Q9Y345 1-797 Y430F) with F430L
To be noted: read-out: Glycine EC50; Y430L (TM5).
Description: as §1, §2, §3

Molecules are shown by their SMILES. Changes are numbered by the printed parent chain.

On to `NCC(=O)O` [Glycine, glycine], for which the EC50 (as a rule, the concentration needed to bring the measured effect to its halfway point) on GlyT2 Y430F mutant turned out to be 12 µM; at GlyT2 Y430L mutant, 19 µM.

(Values after publication PMC9873984, “Membrane cholesterol regulates inhibition and substrate transport by the glycine transporter, GlyT2” (Life Science Alliance, 2023).)
